This assay has as its system P. renovo. Briefly: plating assay to determine phosphorus source utilization capacity. As to conditions: wild-type P. renovo, agar plates, 0.313 mM phosphite addition, 5-day outgrowth. It counts as cell-based, Picochlorum renovo. The protocol: FIG. 1 depicts a plating assay to determine phosphorus source utilization capacity in P. renovo.
Microalgae were cultivated under constant illumination at […] of light, 2% CO2, and constant temperature of 33° C. These conditions were utilized to generate seed cultures for transformation and outgrowth of transformants to generate clonal isolates on agar plates. Media was comprised of a modified f/2 recipe, as described previously. For phosphorus source utilization analyses, agar plates were prepared as described previously, utilizing 8.75 g/L salinity, via dilution of seawater. […] Approximately 4.75×10^8 early log phase cells were plated and incubated under the above conditions; plates were imaged after 5 days of growth.

Here are results for one molecule from US12173276B2 (Alliance for Sustainable Energy, LLC, priority 2021, dated 2024).

In the case of `O=[PH](O)O` [phosphite, Sodium phosphite dibasic pentahydrate], the “bleaching compared to control with no added phosphorus source” value is given as “noticeable bleaching occurred” and the “growth with phosphite as the sole phosphorus source” value is “no growth was observed”.
